Measured values reported in patent US20260274853A1, “BIFUNCTIONAL COMPOUNDS CONTAINING PYRIMIDINE DERIVATIVES FOR DEGRADING CYCLIN-DEPENDENT KINASE 2 VIA UBIQUITIN PROTEASOME PATHWAY” (NIKANG THERAPEUTICS, INC., priority 2022, published 2026).

How the values were obtained:
CDK2 [1] = target: T1, CDK2 (Homo sapiens, UniProt P24941); experiment: Inhibition of CDK2: phospho-Rb (S807/811) HTRF measurement in OVCAR3 cells; type: cell-based; details: 24 h compound treatment, read-out: pRb (nM), IC50 in pRB(S807/811) assay
T1 construct: High-Throughput Measurement of Cellular Endogenous CDK2; endogenous in cells; host or cells: OVCAR3
Procedure: Phosphorylation of RB protein at S807/811 were measured using HTRF phospho-RB cellular kits (Cat #64RBS807PEG) from Cisbio.
On Day 1, OVCAR3 (dependent on CDK2) cells were seeded into 96-well tissue-culture treated plates at 20,000 cells/well in 200 μL and incubated overnight at 37° C. in CO2 atmosphere. On Day 2, the cells were treated with test compounds at concentrations from 0.3 to 10,000 nM using HP D300 digital dispenser. Twenty-four hours after compound treatment, cell culture media was removed by flicking the plate and tapping the plate against clean paper towel. Immediately 30 μL 1× lysis buffer was supplemented from the kit and the plate was incubated at room temperature on shaker for 30 min. After homogenization by pipetting up and down, 8 μL cell lysate from 96-well cell culture plate was transferred to 384-well small volume white detection plate. 2 μL premixed detection solution was added and the plate was covered with sealer. To prepare the detection solution, d2 conjugated-phospho-RB antibody and Eu-cryptate conjugated phosphor-RB antibody were diluted into detection buffer following manufacturer's instruction. Detection plates were incubated for 4 h at room temperature and read on ClarioStar (BMG Labtech) in TR-FRET mode (665 nM and 620 nM). The TR-FRET ratio (665 nM/620 nM) was plotted against the compound concentration and normalized to DMSO controls. Half maximal inhibition concentration (IC50) values are calculated with a four-parameter logistic fit using GraphPad Prism (version 8; La Jolla, CA).
In the table below, A indicates a IC50 of less than 0.1 μM; B indicates a IC50 of greater than or equal to 0.1 μM but less than 0.5 μM; C indicates a IC50 of greater than or equal to 0.5 μM but less than 1 μM; and D indicates a […] of greater than or equal to 1 μM but less than 10 μM.

CDK2 [2] = target: T1, CDK2; experiment: CDK2 HTRF assay: cellular endogenous CDK2 level in OVCAR3 cells; type: cell-based; details: 24 hours compound treatment; for DC50: read-out: DC50 (half maximal degradation concentration of CDK2)
Procedure: Effects of compounds on cellular CDK2 level can be monitored by a high-throughput HTRF assay or traditional Western Blot assay.
To determine half maximal degradation concentration (DC50) values of compounds, cellular CDK2 level was measured in 96-well format using HTRF total CDK2 cellular kit (Cat #64CDK2TPEG) from Cisbio.
On Day 1, OVCAR3 cells were seeded into 96-well tissue-culture treated plates at 20,000 cells/well in 200 μL and incubated overnight at 37° C. in CO2 atmosphere. On Day 2 cells were treated with compounds at concentration ranging from 0.3 to 10,000 nM using HP D300 digital dispenser. 24 hours after compound treatment, cell culture media was removed by flicking the plate and tapping the plate against clean paper towel. Immediately 30 μL 1× lysis buffer was supplemented from the kit and the plate was incubated at room temperature on shaker for 30 min. After homogenization by pipetting up and down, 8 μL cell lysate from 96-well cell culture plate was transferred to 384-well small volume white detection plate. 2 μL premixed detection solution was added and the plate was covered with sealer. To prepare the detection solution, d2 conjugated-CDK2 antibody and Eu-cryptate conjugated CDK2 antibody were diluted into detection buffer following manufacturer's instruction. Detection plates were incubated overnight at room temperature and read on ClarioStar (BMG Labtech) in TR-FRET mode (665 nM and 620 nM). The TR-FRET ratio (665 nM/620 nM) was plotted against the compound concentration and normalized to DMSO controls. Half maximal degradation concentration (DC50) values were calculated with a four-parameter logistic fit using GraphPad Prism (version 8; La Jolla, CA).
In the table below, A indicates a DC50 of less than 0.1 μM; B indicates a DC50 of greater than or equal to 0.1 μM but less than 0.5 μM; C indicates a DC50 of greater than or equal to 0.5 μM but less than 1 μM; and D indicates a DC50 of greater than or equal to 1 μM but less than 10 μM.

| Structure (SMILES) | IC50 (CDK2 [1]) [nM] | DC50 (CDK2 [2]) [nM] | DC50 (half maximal degradation concentration of CDK2) (CDK2 [2]) |
| --- | --- | --- | --- |
| O=C1CCC(N2C(=O)c3cc(F)c(N4CCN(Cc5cccc(S(=O)(=O)N6CCC(Nc7ncc(C(F)(F)F)c(-c8cnn(C9CCOCC9)c8)n7)CC6)c5)CC4)cc3C2=O)C(=O)N1 (centres unmarked) [Example 10, 2-(2,6-dioxopiperidin-3-yl)-5-fluoro-6-(4-(3-((4-((4-(1-(tetrahydro-2H-pyran-4-yl)-1H-pyrazol-4-yl)-5-(trifluoromethyl)-pyrimidin-2-yl)amino)-piperidin-1-yl)-sulfonyl)benzyl)-piperazin-1-yl)iso-indoline-1,3-dione] | < 100 | < 100 | – |
| O=C1CCC(Nc2ccc(C3CCN(Cc4cccc(S(=O)(=O)N5CCC(Nc6ncc(C(F)(F)F)c(-c7cnn(CC(F)(F)F)c7)n6)CC5)c4)CC3)cc2)C(=O)N1 (centres unmarked) [Example 11, 3-((4-(1-(3-((4-((4-(1-(2,2,2-trifluoro-ethyl)-1H-pyrazol-4-yl)-5-(trifluoro-methyl)pyrimidin-2-yl)amino)-piperidin-1-yl)sulfonyl)benzyl)piperidin-4-yl)-phenyl)amino)-piperidine-2,6-dione] | < 100 | < 100 | – |
| O=C1CCC(N2Cc3cc(N4CCC5(CCN(Cc6cccc(S(=O)(=O)N7CCC(Nc8ncc(C(F)(F)F)c(-c9cnn(CC(F)(F)F)c9)n8)CC7)c6)CC5)CC4)ccc3C2=O)C(=O)N1 (centres unmarked) [Example 12, 3-(1-oxo-5-(9-(3-((4-((4-(1-(2,2,2-trifluoroethyl)-1H-pyrazol-4-yl)-5-(trifluoromethyl)pyrimidin-2-yl)amino)-piperidin-1-yl)sulfonyl)-benzyl)-3,9-diazaspiro[5.5]undecan-3-yl)isoindolin-2-yl)piperidine-2,6-dione] | < 100 | < 100 | – |
| O=C1CCC(N2C(=O)c3cc(F)c(N4CCN(Cc5cccc(S(=O)(=O)N6CCC(Nc7nccc(-c8cnn(CC(F)(F)F)c8)n7)CC6)c5)CC4)cc3C2=O)C(=O)N1 (centres unmarked) [Example 17, 2-(2,6-dioxopiperidin-3-yl)-5-fluoro-6-(4-(3-((4-((4-(1-(2,2,2-trifluoroethyl)-1H-pyrazol-4-yl)pyrimidin-2-yl)amino)-piperidin-1-yl)sulfonyl)benzyl)-piperazin-1-yl)isoindoline-1,3-dione] | 1000 to 10000 | – | no curve |
| O=C1CCC(c2ccc(N3CC4CCC(C3)N4Cc3cccc(S(=O)(=O)N4CCC(Nc5ncc(C(F)(F)F)c(-c6cnn(CC(F)(F)F)c6)n5)CC4)c3)cc2)C(=O)N1 (centres unmarked) [Example 18, 3-(4-(8-(3-((4-((4-(1-(2,2,2-trifluoro-ethyl)-1H-pyrazol-4-yl)-5-(trifluoro-methyl)pyrimidin-2-yl)amino)-piperidin-1-yl)sulfonyl)benzyl)-3,8-diazabicyclo-[3.2.1]octan-3-yl)phenyl)-piperidine-2,6-dione] | < 100 | < 100 | – |
| Cn1c(S(=O)(=O)N2CCC(Nc3ncc(C(F)(F)F)c(-c4cnn(CC(F)(F)F)c4)n3)CC2)cnc1CN1CCN(c2ccc(C3CCC(=O)NC3=O)cc2F)CC1 (centres unmarked) [Example 20, 3-(3-fluoro-4-(4-((1-methyl-5-((4-((4-(1-(2,2,2-trifluoroethyl)-1H-pyrazol-4-yl)-5-(trifluoromethyl)pyrimidin-2-yl)amino)-piperidin-1-yl)sulfonyl)-1H-imidazol-2-yl)methyl)piperazin-1-yl)phenyl)-piperidine-2,6-dione] | < 100 | < 100 | – |
| O=C1CCC(N2C(=O)c3cc(F)c(N4CCN(Cc5cccc(S(=O)(=O)N6CCC(Nc7ncc(C(F)(F)F)c(-c8cnn(CC(F)F)c8)n7)CC6)c5)CC4)cc3C2=O)C(=O)N1 (centres unmarked) [Example 22, 5-(4-(3-((4-((4-(1-(2,2-difluoroethyl)-1H-pyrazol-4-yl)-5-(trifluoromethyl)-pyrimidin-2-yl)amino)-piperidin-1-yl)sulfonyl)benzyl)piperazin-1-yl)-2-(2,6-dioxopiperidin-3-yl)-6-fluoroiso-indoline-1,3-dione] | 100 to 500 | < 100 | – |
| CC(C)(O)Cn1cc(-c2nc(NC3CCN(S(=O)(=O)c4cccc(CN5CCN(c6ccc(N7CCC(=O)NC7=O)cc6)CC5)c4)CC3)ncc2C(F)(F)F)cn1 [Example 24, 1-(4-(4-(3-((4-((4-(1-(2-hydroxy-2-methylpropyl)-1H-pyrazol-4-yl)-5-(trifluoromethyl)pyrimidin-2-yl)amino)-piperidin-1-yl)sulfonyl)benzyl)-piperazin-1-yl)phenyl)dihydro-pyrimidine-2,4(1H,3H)-dione] | < 100 | < 100 | – |

The remaining lines, values ahead:

| IC50 (CDK2 [1]) [nM] | DC50 (CDK2 [2]) [nM] | DC50 (half maximal degradation concentration of CDK2) (CDK2 [2]) | Structure (SMILES) |
| --- | --- | --- | --- |
| < 100 | < 100 | – | O=C1CCN(c2ccc(N3CCN(Cc4cccc(S(=O)(=O)N5CCC(Nc6ncc(C(F)(F)F)c(-c7cnn(CC(F)(F)F)c7)n6)CC5)c4)CC3)c(F)c2)C(=O)N1 [Example 13, 1-(3-fluoro-4-(4-(3-((4-((4-(1-(2,2,2-trifluoroethyl)-1H-pyrazol-4-yl)-5-(trifluoromethyl)pyrimidin-2-yl)amino)-piperidin-1-yl)sulfonyl)benzyl)-piperazin-1-yl)phenyl)dihydro-pyrimidine-2,4(1H,3H)-dione] |
| < 100 | < 100 | – | O=C1CCC(c2ccc(N3CCN(Cc4cccc(S(=O)(=O)N5CCC(Nc6ncc(C(F)(F)F)c(-c7cnn(CC(F)(F)F)c7)n6)CC5)c4)CC3)c(F)c2)C(=O)N1 (centres unmarked) [Example 14, 3-(3-fluoro-4-(4-(3-((4-((4-(1-(2,2,2-trifluoroethyl)-1H-pyrazol-4-yl)-5-(trifluoromethyl)pyrimidin-2-yl)-amino)piperidin-1-yl)sulfonyl)benzyl)-piperazin-1-yl)phenyl)piperidine-2,6-dione] |
| < 100 | < 100 | – | O=C1CCC(N2Cc3cc(N4CCN(Cc5cccc(S(=O)(=O)N6CCC(Nc7ncc(C(F)(F)F)c(-c8cnn(CC(F)(F)F)c8)n7)CC6)c5)CC4)c(F)cc3C2=O)C(=O)N1 (centres unmarked) [Example 15, 3-(6-fluoro-1-oxo-5-(4-(3-((4-((4-(1-(2,2,2-trifluoroethyl)-1H-pyrazol-4-yl)-5-(trifluoromethyl)pyrimidin-2-yl)-amino)piperidin-1-yl)sulfonyl)benzyl)-piperazin-1-yl)isoindolin-2-yl)-piperidine-2,6-dione] |
| 1000 to 10000 | 1000 to 10000 | – | O=C1CCN(c2ccc(N3CCN(Cc4cccc(S(=O)(=O)N5CCC(Nc6ncc(C(F)(F)F)c(-c7cnn(CC(F)(F)F)c7)n6)CC5)c4)CC3)c(C(F)(F)F)c2)C(=O)N1 [Example 16, 1-(4-(4-(3-((4-((4-(1-(2,2,2-trifluoro-ethyl)-1H-pyrazol-4-yl)-5-(trifluoro-methyl)pyrimidin-2-yl)amino)-piperidin-1-yl)sulfonyl)benzyl)-piperazin-1-yl)-3-(trifluoromethyl)-phenyl)dihydro-pyrimidine-2,4(1H,3H)-dione] |
| 100 to 500 | 100 to 500 | – | O=C1CCC(c2ccc(N3CCN(Cc4cccc(S(=O)(=O)N5CCC(Nc6ncc(C(F)(F)F)c(-c7cnn(CC(F)(F)F)c7)n6)CC5)c4)CC3)c(C(F)(F)F)c2)C(=O)N1 (centres unmarked) [Example 23, 3-(4-(4-(3-((4-((4-(1-(2,2,2-trifluoro-ethyl)-1H-pyrazol-4-yl)-5-(trifluoro-methyl)pyrimidin-2-yl)amino)-piperidin-1-yl)sulfonyl)benzyl)-piperazin-1-yl)-3-(trifluoromethyl)-phenyl)piperidine-2,6-dione] |
